Data: US8574563B2 (Bristol-Myers Squibb Company, priority 2006, dated 2013)

System: HCV 1b-377-neo replicon cells
Assay: HCV replicon assay, HCV 1b-377-neo replicon cells (1b FRET)
Type: cell-based, Hepatitis C virus genotype 1b
Details: HCV 1b-377-neo replicon cells; HCV 1b genotype
Protocol: An HCV Replion assay was utilized in the present disclosure, and was prepared, conducted and validated as described in commonly owned PCT/US2006/022197 and in O'Boyle et. al. Antimicrob Agents Chemother. 2005 April; 49(4):1346-53.
HCV 1b-377-neo replicon cells were used to test the currently described compound series as well as cells resistant to compound A due to a Y2065H mutation in NS5A (described in application PCT/US2006/022197). The compounds tested were determined to have more than 10-fold less inhibitory activity on cells resistant to compound A than wild-type cells indicating a related mechanism of action between the two compound series. Thus, the compounds of the present disclosure can be effective to inhibit the function of the HCV NS5A protein and are understood to be as effective in combinations as previously described in application PCT/US2006/022197 and commonly owned WO/04014852. Further, the compounds of the present disclosure can be effective against the HCV 1b genotype. It should also be understood that the compounds of the present disclosure can inhibit multiple genotypes of HCV. […] In one embodiment compounds of the present disclosure are active against the 1a, 1b, 2a, 2b, 3a, 4a, and 5a genotypes.

Row | Structure (SMILES) | EC50 range against HCV 1b (Table 2, Range)
1 | COC(=O)N[C@@H](C(=O)N1CCC[C@@H]1c1ncc(-c2ccc(-c3ccc(-c4cnc([C@H]5CCCN5C(=O)[C@H](NC(=O)OC)C5CC5)[nH]4)cc3)cc2)[nH]1)C1CC1 [Example M29] | >A

Same assay, conditions: HCV 1b-377-neo replicon cells; HCV 1b genotype; read-out: EC50 range against HCV 1b (Table 2, Range)

Row | Structure (SMILES) | EC50
2 | CC[C@@H](NC(=O)OC)C(=O)N1CCC[C@H]1c1ncc(-c2ccc(-c3ccc(-c4cnc([C@@H]5CCCN5C(=O)[C@@H](c5ccccc5)N(CC)CC)[nH]4)cc3)cc2)[nH]1 [Example M54, methyl ((1R)-1-(((2S)-2-(5-(4′-(2-((2S)-1-((2R)-2-(diethylamino)-2-phenylacetyl)-2-pyrrolidinyl)-1H-imidazol-5-yl)-4-biphenylyl)-1H-imidazol-2-yl)-1 pyrrolidinyl)carbonyl)propyl) carbamate] | 1 to 99 nM

Same assay, conditions: Hepatitis C virus, HCV 1b-377-neo replicon cells; HCV 1b genotype; read-out: EC50 range against HCV 1b (Table 2, Range)

Row | Structure (SMILES) | EC50
3 | COC(=O)N[C@H](C(=O)N1C[C@H](F)C[C@H]1c1ncc(-c2ccc(-c3ccc(-c4cnc([C@@H]5C[C@@H](F)CN5C(=O)[C@@H](NC(=O)OC)C(C)C)[nH]4)cc3)cc2)[nH]1)C(C)C [JG-16, methyl ((1S)-1-(((2S,4R)-4-fluoro-2-(5-(4′-(2-((2S,4R)-4-fluoro-1-((2S)-2-((methoxycarbonyl)amino)-3-methylbutanoyl)-2-pyrrolidinyl)-1H-imidazol-5-yl)-4-biphenylyl)-1H-imidazol-2-yl)-1-pyrrolidinyl)carbonyl)-2-methylpropyl)carbamate] | 0.001 to 0.999 nM
4 | CCCN[C@@H](C(=O)N1CCC[C@H]1c1nc(-c2ccc(-c3ccc(-c4cnc([C@@H]5CCCN5C(=O)[C@H](NCCC)c5ccccc5)[nH]4)cc3)cc2)c[nH]1)c1ccccc1 [Example F16, N-((1R)-2-oxo-1-phenyl-2-((2S)-2-(4-(4′-(2-((2S)-1-((2R)-2-phenyl-2-(propylamino)acetyl)-2-pyrrolidinyl)-1H-imidazol-5-yl)-4-biphenylyl)-1H-imidazol-2-yl)-1-pyrrolidinyl)ethyl)-1-propanamine] | 0.001 to 0.999 nM
5 | CCN(CC)[C@@H](C(=O)N1CCC[C@H]1c1ncc(-c2ccc(-c3ccc(-c4nc([C@@H]5CCCN5C(=O)[C@@H](c5ccccc5)N(CC)CC)[nH]c4C)cc3)cc2)[nH]1)c1ccccc1 [Example E5a, (1R)-2-((2S)-2-(4-(4′-(2-((2S)-1-((2R)-2-(diethylamino)-2-phenylacetyl)-2-pyrrolidinyl)-1H-imidazol-4-yl)-4-biphenylyl)-5-methyl-1H-imidazol-2-yl)-1-pyrrolidinyl)-N,N-diethyl-2-oxo-1-phenylethanamine] | 0.001 to 0.999 nM
6 | CCN(CC)[C@@H](C(=O)N1CCC[C@H]1c1ncc(-c2ccc(-c3ccc(-c4cnc([C@@H]5CCCN5C(=O)[C@H](NC(=O)OC)c5ccccc5)[nH]4)cc3)cc2F)[nH]1)c1ccccc1 [Example D39, methyl ((1R)-2-((2S)-2-(5-(4′-(2-((2S)-1-((2R)-2-(diethylamino)-2-phenylacetyl)-2-pyrrolidinyl)-1H-imidazol-5-yl)-3′-fluoro-4-biphenylyl)-1H-imidazol-2-yl)-1-pyrrolidinyl)-2-oxo-1-phenylethyl)carbamate] | 0.001 to 0.999 nM
7 | COC(=O)N[C@@H](C)C(=O)N1C[C@H](O)C[C@H]1c1ncc(-c2ccc(-c3ccc(-c4cnc([C@@H]5C[C@@H](O)CN5C(=O)[C@H](C)NC(=O)OC)[nH]4)cc3)cc2)[nH]1 [JG-4] | 1 to 99 nM
8 | COC(=O)N[C@@H](Cc1c[nH]c2ccccc12)C(=O)N1CCC[C@H]1c1ncc(-c2ccc(-c3ccc(-c4cnc([C@@H]5CCCN5C(=O)[C@@H](NC(=O)OC)C(C)C)[nH]4)cc3)cc2)[nH]1 [cj-99, methyl ((1S)-1-(((2S)-2-(5-(4′-(2-((2S)-1-((2S)-3-(1H-indol-3-yl)-2-((methoxycarbonyl)amino)propanoyl)-2-pyrrolidinyl)-1H-imidazol-5-yl)-4-biphenylyl)-1H-imidazol-2-yl)-1-pyrrolidinyl)carbonyl)-2-methylpropyl)carbamate] | 0.001 to 0.999 nM
9 | COC(=O)N[C@@H](C(=O)N[C@@H](C)c1ncc(-c2ccc(-c3ccc(-c4cnc([C@H](C)NC(=O)[C@H](NC(=O)OC)c5ccccc5)[nH]4)cn3)nc2)[nH]1)c1ccccc1 [Example 153c-7, dimethyl (2,2′-bipyridine-5,5′-diylbis(1H-imidazole-5,2-diyl(1S)-1,1-ethanediylimino((1R)-2-oxo-1-phenyl-2,1-ethanediyl)))biscarbamate] | 1 to 99 nM
10 | COC(=O)N[C@@H](C(=O)N1CCC[C@H]1c1ncc(-c2ccc(-c3ccc(-c4cnc([C@@H]5CCCN5C(=O)c5cccnc5)[nH]4)cc3)cc2)[nH]1)c1ccccc1 [Example 68, methyl ((1R)-2-oxo-1-phenyl-2-((2S)-2-(5-(4′-(2-((2S)-1-(3-pyridinylcarbonyl)-2-pyrrolidinyl)-1H-imidazol-5-yl)-4-biphenylyl)-1H-imidazol-2-yl)-1-pyrrolidinyl)ethyl)carbamate] | 0.001 to 0.999 nM
11 | CN(C)[C@@H](C(=O)N1CCC[C@H]1c1ncc(-c2ccc(-c3ccc(-c4cnc([C@@H]5CCCN5C(=O)[C@H]5CCCCN5C(=O)OC(C)(C)C)[nH]4)cc3)cc2)[nH]1)c1ccccc1 [Example 94-20, tert-butyl (2R)-2-(((2S)-2-(5-(4′-(2-((2S)-1-((2R)-2-(dimethylamino)-2-phenylacetyl)-2-pyrrolidinyl)-1H-imidazol-5-yl)-4-biphenylyl)-1H-imidazol-2-yl)-1-pyrrolidinyl)carbonyl)-1-piperidinecarboxylate] | 1 to 99 nM
12 | CCN(CC)[C@@H](C(=O)N1CCC[C@H]1c1ncc(-c2ccc(-c3ccc(-c4cnc([C@@H]5CCCN5C(=O)[C@@H](C(C)C)N(CC)CC)[nH]4)cc3)cc2)[nH]1)c1ccccc1 [Example M45, (2R)-1-((2S)-2-(5-(4′-(2-((2S)-1-((2R)-2-(diethylamino)-2-phenylacetyl)-2-pyrrolidinyl)-1H-imidazol-5-yl)-4-biphenylyl)-1H-imidazol-2-yl)-1-pyrrolidinyl)-N,N-diethyl-3-methyl-1-oxo-2-butanamine] | 1 to 99 nM
13 | COC(=O)N[C@@H](C(=O)N1CCC[C@H]1c1ncc(-c2ccc(-c3ccc(-c4cnc([C@@H]5CCCN5C(=O)C5(c6ccc(Cl)cc6)CC5)[nH]4)cc3)cc2)[nH]1)c1ccccc1 [Example 84-78, methyl ((1R)-2-((2S)-2-(5-(4′-(2-((2S)-1-((1-(4-chlorophenyl)cyclopropyl)carbonyl)-2-pyrrolidinyl)-1H-imidazol-5-yl)-4-biphenylyl)-1H-imidazol-2-yl)-1-pyrrolidinyl)-2-oxo-1-phenylethyl)carbamate] | 0.001 to 0.999 nM
14 | O=C([C@@H](c1ccccc1)N1CCCCC1)N1CC(F)(F)C[C@H]1c1nc(-c2ccc(-c3ccc(-c4cnc([C@@H]5CCCN5C(=O)[C@@H](c5ccccc5)N5CCCCC5)[nH]4)cc3)cc2)c[nH]1 [Example 24-10, 1-((R)-2-((2S)-2-(4-(4′-(2-((2S)-4,4-difluoro-1-((2R)-2-phenyl-2-(1-piperidinyl)acetyl)-2-pyrrolidinyl)-1H-imidazol-4-yl)-4-biphenylyl)-1H-imidazol-2-yl)-1-pyrrolidinyl)-2-oxo-1-phenylethyl)piperidine] | 0.001 to 0.999 nM
15 | COC(=O)N[C@@H](C(=O)N1[C@@H](C)CC[C@H]1c1nc(-c2ccc(-c3ccc(-c4c[nH]c([C@@H]5CC[C@H](C)N5C(=O)[C@H](NC(=O)OC)c5ccccc5)n4)cc3)cc2)c[nH]1)c1ccccc1 [Example M153, dimethyl (4,4′-biphenyldiylbis(1H-imidazole-4,2-diyl((2S,5S)-5-methyl-2,1-pyrrolidinediyl)((1R)-2-oxo-1-phenyl-2,1-ethanediyl)))biscarbamate] | 0.001 to 0.999 nM
16 | CCN(CC)[C@@H](C(=O)N1CCC[C@H]1c1ncc(-c2ccc(-c3ccc(-c4[nH]c([C@@H]5CCCN5C(=O)[C@H](C)NC(=O)OC)nc4C(F)(F)F)cc3)cc2)[nH]1)c1ccccc1 [Example J45, methyl ((1S)-2-((2S)-2-(5-(4′-(2-((2S)-1-((2R)-2-(diethylamino)-2-phenylacetyl)-2-pyrrolidinyl)-1H-imidazol-5-yl)-4-biphenylyl)-4-(trifluoromethyl)-1H-imidazol-2-yl)-1-pyrrolidinyl)-1-methyl-2-oxoethyl)carbamate] | 0.001 to 0.999 nM
17 | CN(C)CC[C@H](NC(=O)OC(C)(C)C)C(=O)N1CCC[C@H]1c1ncc(-c2ccc(-c3ccc(-c4cnc([C@@H]5CCCN5C(=O)[C@H](CCN(C)C)NC(=O)OC(C)(C)C)[nH]4)cc3)cc2)[nH]1 [cj-140, di-tert-butyl (4,4′-biphenyldiylbis(1H-imidazole-5,2-diyl(2S)-2,1-pyrrolidinediyl((2S)-4-(dimethylamino)-1-oxo-1,2-butanediyl)))biscarbamate] | 100 to 999 nM
18 | CCN(CC)[C@@H](C(=O)N1CCC[C@H]1c1ncc(-c2ccc(-c3ccc(-c4cnc([C@@H]5CCCN5C(=O)[C@@H](NC(=O)OC)C(C)(C)C)[nH]4)cc3)cc2)[nH]1)c1ccccc1 [Example M59, methyl ((1S)-1-(((2S)-2-(5-(4′-(2-((2S)-1-((2R)-2-(diethylamino)-2-phenylacetyl)-2-pyrrolidinyl)-1H-imidazol-5-yl)-4-biphenylyl)-1H-imidazol-2-yl)-1-pyrrolidinyl)carbonyl)-2,2-dimethylpropyl)carbamate] | 1 to 99 nM
